≈ marks a conversion by molar mass, not a printed value. Read-outs that look alike come from different tables or passages of the source.
Assays:
[1] = Metabolic stability in human liver microsomes; format: in vitro ADME; settings: for half-life at 15 µg/mL: pH 7.4, Table 3
Experimental: The prodrugs were incubated with the human liver microsomes at 37° C. as an indication of the susceptibility of prodrugs to undergo bioconversion in the liver. The reactions were initiated by adding 1.5 μL of the prodrug stock solution (10 mg/mL in DMSO) to a preheated solution consisting of 748.5 μL potassium phosphate buffer solution (20 mM, pH 7.4, ionic strength 0.5), 200 μL NADPH, and 50 μLhuman liver microsomes (mixed gender, 0.5 ml at 20 mg/mL). The solutions were stirred at a constant temperature of 37° C. At appropriate intervals, 50 μLof samples were mixed with 100 μL of ice-cold MeOH. After immediate mixing and centrifugation (5 min at 14.000 rpm), the resulting clear supernatant was analyzed for the remaining prodrug by HPLC.

[2] = Aqueous solubility of CBD and solubility in various solvents; format: physicochemical
Experimental: CBD was dissolved in 50 mM phosphate buffer, pH 6.8, containing 10% (v/v) EtOH. Suspensions were centrifuged for 3 min at 14000 rpm. Solubilities are between 15-110 μg/ml. Some floating particles can be seen which, once dissolved, cause variation in the result. When the suspension was filtered (Millex 0.45 μm) no detectable (HPLC) CBD was found.
CBD solubility in various solvents when ca. 1 mg was dissolved in ca. 1 ml. Solutions/suspensions were centrifuged, and 100 μl of the sample was mixed with 100 μl MeOH:H2O (1:1).
The solubility of CBD in various solvents is shown below: • 1. 50% EtOH:50% H2O=ca. 1 mg/ml • 2. 15% HP-beta-CD:85% H2O=0.7 mg/ml • 3. 5% HP-beta-CD:0.5% HPMC:84.5% H2O=0.16 mg/ml • 4. 4% BSA:95% H2O=0.07 mg/ml • 5. 90% Propylene glycol:10% H2O=0.87 mg/ml • 6. 30% Solutol® HS 15:10% EtOH:60% H2O=0.96 mg/ml

[3] = system: reconstructed human epidermis cells; experiment: In vitro skin permeability (SkinEthic Episkin reconstructed human epidermis); format: in vitro ADME; settings: receiver 15% HP-beta-CD pH 7.4
Experimental: The in vitro permeability studies were carried out in commercial reconstructed human epidermis cells (SkinEthic™ Episkin Reconstructed human epidermis). This model is composed of TR146 cells (derived from a squamous cell carcinoma of the buccal mucosa) cultivated on an inert polycarbonate filter at the air-liquid interface in a chemically defined medium. This model forms an epithelial tissue devoid of stratum corneum, resembling histologically to the mucosa of the oral cavity.
Upon receiving the cells, each insert (0.5 cm^2 or 0.33 cm^2) was placed in a plate containing 800 μL fresh medium at room temperature. The culture dishes were placed in the incubator at 37° C., 5% CO2, and saturated humidity overnight. Next day, the inserts were placed in a plate containing 800 μL 15% HP-β-cyclodextrin in H2O. CBD and CBG, and prodrugs CBDp27 and CBGp1 were dissolved in two different vehicles, 1:1:1 prop gly:water:EtOH/6% Brij 98, and 100% mineral oil. The receiver solution was 15% HP-beta-CD in phosphate buffer (pH 7.4). 400 μL the prodrugs were applied as suspensions (ca. 2 mg/ml). The plates were stirred gently at 37° C. At appropriate intervals, the receptor compartment was sampled (100 μL) and replenished with fresh […] solution each time. The samples were mixed with 100 μL of MeOH, and analyzed for drug (both the parent drug and prodrug) by HPLC-MS.
The flux-values for the rate of delivery of drugs were determined from Fick's law of diffusion.

For `C=C(C)[C@@H]1CCC(C)=C[C@H]1c1c(O)cc(CCCCC)cc1O` [CBD, Cannabidiol], the “Half-life in human liver microsomes (single determinations)” value ([1]; Table 3, 37° C., NADPH) was 23.4 min, the half-life at 15 µg/mL ([1]; both sexes, human, microsomes, 37° C., NADPH, read-out: Half-life in human liver microsomes (single determinations) (converted)) was 36 min and the half-life at 15 µg/mL ([1]; both sexes, human, microsomes, average of determinations, read-out: Half-life in human liver microsomes (avg.) (converted)) was 30 min. For the same compound, the microsomal CLint at 15 µg/mL ([1]; both sexes, human, microsomes, pH 7.4, Table 3, CLint = k/P, protein 1 mg, read-out: Intrinsic clearance CLint) was 23.1 µL/min/mg, the “Solubility after filtration (HPLC)” value ([2]; 50 mM phosphate buffer, pH 6.8, 10% EtOH, suspension filtered (Millex 0.45 μm)) was “no detectable” and the solubility ([2]; 15% HP-beta-CD:85% H2O, ca. 1 mg in ca. 1 ml) was 700 µg/mL (≈ 2230 µM). The solubility ([2]; aqueous with cosolvent or surfactant or cyclodextrin, thermodynamic from solid, 4% BSA:95% H2O, ca. 1 mg in ca. 1 ml, read-out: Solubility) was 70 µg/mL (≈ 223 µM), the solubility ([2]; aqueous with cosolvent or surfactant or cyclodextrin, thermodynamic from solid, 5% HP-beta-CD:0.5% HPMC:84.5% H2O, ca. 1 mg in ca. 1 ml, read-out: Solubility) was 160 µg/mL (≈ 509 µM) and the solubility ([2]; aqueous with cosolvent or surfactant or cyclodextrin, thermodynamic from solid, 30% Solutol HS 15:10% EtOH:60% H2O, ca. 1 mg in ca. 1 ml, read-out: Solubility) was 960 µg/mL (≈ 3050 µM). For the same compound, the solubility ([2]; aqueous with cosolvent or surfactant or cyclodextrin, thermodynamic from solid, 50% EtOH:50% H2O, ca. 1 mg in ca. 1 ml, read-out: Solubility) was about 1000 µg/mL (≈ 3180 µM), the solubility ([2]; organic solvent or mixture, thermodynamic from solid, 90% Propylene glycol:10% H2O, ca. 1 mg in ca. 1 ml, read-out: Solubility) was 870 µg/mL (≈ 2770 µM) and the solubility ([2]; phosphate buffer with 10% (v/v) ethanol, aqueous with cosolvent or surfactant or cyclodextrin, thermodynamic from solid, 50 mM phosphate buffer, pH 6.8, 10% (v/v) EtOH, suspension centrifuged, read-out: Solubility) was 15 to 110 µg/mL (≈ 47.7 to 350 µM). For the same compound, the “Skin permeation, applied compound (parent or intact prodrug)” value ([3]; vehicle mineral oil) was 0.0233 ± 0.007 nmol/cm^2/h and the “Skin permeation, applied compound (parent or intact prodrug)” value ([3]; vehicle solvent mix (1:1:1 prop gly:water:EtOH/6% Brij 98)) was 1.16 ± 0.12 nmol/cm^2/h.
